The target of data set [1] is T1, rabbit muscle glycogen phosphorylase a (RMGPa) (Oryctolagus cuniculus, UniProt P00489).
T1 sequence (P00489 2-843 limits assumed): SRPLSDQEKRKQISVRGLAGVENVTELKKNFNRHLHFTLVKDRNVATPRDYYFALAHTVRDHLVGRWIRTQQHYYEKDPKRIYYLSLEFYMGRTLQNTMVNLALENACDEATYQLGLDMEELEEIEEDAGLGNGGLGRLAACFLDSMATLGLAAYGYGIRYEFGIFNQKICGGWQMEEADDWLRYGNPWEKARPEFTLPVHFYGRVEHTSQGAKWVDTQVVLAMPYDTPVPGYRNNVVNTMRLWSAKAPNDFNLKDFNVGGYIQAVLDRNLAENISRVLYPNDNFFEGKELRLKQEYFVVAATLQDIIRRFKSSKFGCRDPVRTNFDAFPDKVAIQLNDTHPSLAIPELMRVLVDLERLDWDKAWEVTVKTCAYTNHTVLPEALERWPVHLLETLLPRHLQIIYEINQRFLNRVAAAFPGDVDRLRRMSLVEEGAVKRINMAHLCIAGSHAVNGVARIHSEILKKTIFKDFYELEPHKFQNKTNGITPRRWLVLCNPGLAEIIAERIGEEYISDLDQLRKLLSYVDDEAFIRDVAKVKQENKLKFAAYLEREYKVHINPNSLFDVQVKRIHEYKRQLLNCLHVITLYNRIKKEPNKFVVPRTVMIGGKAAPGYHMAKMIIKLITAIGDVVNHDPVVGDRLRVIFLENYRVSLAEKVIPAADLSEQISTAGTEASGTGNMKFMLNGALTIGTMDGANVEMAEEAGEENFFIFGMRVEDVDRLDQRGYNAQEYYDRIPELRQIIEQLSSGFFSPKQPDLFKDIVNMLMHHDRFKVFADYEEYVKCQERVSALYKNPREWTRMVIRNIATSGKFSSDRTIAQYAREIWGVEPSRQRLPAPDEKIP
In words: Enzyme inhibition assay against rabbit muscle glycogen phosphorylase a (phosphate release from glucose-1-phosphate). The class given is biochemical. The conditions noted are these: mean ± S.D. of three determinations; NI means no inhibition. On the procedure:
To understand the validity of the synthetic probes, the synthesized probes 1–3 were evaluated in an enzyme inhibition assay against rabbit muscle glycogen phosphorylase a (RMGPa). As described previously, the activity of RMGPa was measured through detecting the release of phosphate from glucose-1-phosphate in the direction of glycogen synthesis, based on the published method.
The inhibitory activity of the test compounds against RMGPa was monitored using a microplate reader (BIO-RAD, Bio-Rad Laboratories, Hercules, CA, USA), based on the published method. In brief, RMGPa activity was measured in the direction of glycogen synthesis by the release of phosphate from glucose-1-phosphate. Each test compound was dissolved in DMSO and diluted at different concentrations for IC50 determination. The enzyme was added to 100 μL of buffer containing 50 mM Hepes (pH = 7.2), 100 mM KCl, 2.5 mM MgCl2, 0.5 mM glucose-1-phosphate, 1 mg/mL glycogen, and the test compound in 96-well microplates (Costar, Corning Incorporated, Corning, NY, USA). After the addition of 150 μL of 1 M HCl containing 10 mg/mL ammonium molybdate and 0.38 mg/mL malachite green, reactions were run at 22 °C for 25 min, and then the phosphate absorbance was measured at 655 nm. The IC50 values were estimated by fitting the inhibition data to a dose-dependent curve using a logistic derivative equation.

The subject of data set [2] is serum proteomes prepared from rats with acute myocardial infarction. In words: Photoaffinity labeling of serum proteomes, gel-based fluorescence imaging. The conditions noted are these: UV light 30 min. The class given is binding, rat. On the procedure: Based on the results of the potency in the enzyme assay, probe 1 was selected and used throughout photolabeling studies (Figure 3). The serum proteomes prepared from rats with acute myocardial infarction were incubated with probe 1 at concentrations of […], and 300, 100, and 30 nM, respectively. The mixture was exposed to UV light for 30 min, and then was imaged using the Tanon-6100 Chemiluminescent Imaging system.
An attempt to semi-quantitatively analyze the serum-free GP level after an acute myocardial infarction was explored. Serum blanks were added in increasing quantities of RMGPa (0, 12.5, 25, 50, and 100 ng/mL at a final concentration) in the presence of an excess of probe 1 (10 μM). In the same way, probe 1 was added to the serum in an acute myocardial infarction model in a rat. […]
Blood samples prepared from rats with acute myocardial infarction were drawn from the abdominal aorta in rats after coronary ligation using a 23-gauge needle. […] The protein concentration of the suspension was measured according to the Bradford method. […] The band densities were calculated with Quantity One software 4.6.2 (Bio-Rad Laboratories, Inc., Hercules, CA, USA). […] The data were recorded on an LTQ-Orbitrap Fusion mass spectrometer (ThermoFisher Scientific Inc., Waltham, MA, USA) coupled to an Easy-nLC 1000 LC System (Thermo Fischer Scientic). […]

In general, IC50 refers to the concentration that inhibits the measured activity by half. A higher IC50 goes with weaker potency in that assay. Usually melting point stands for the temperature of the solid-liquid transition. Consider `CN(C)c1cccc2c(S(=O)(=O)NCCCC[C@H](NC(=O)c3ccc(C(=O)c4ccccc4)cc3)C(=O)OCc3cn(CCOCCOCCOCCOC4CCN(C(=O)[C@H](Cc5ccc(F)cc5)NC(=O)c5cc6cc(Cl)ccc6[nH]5)CC4)nn3)cccc12` [Compound 1, N-[(S)-1-(4-{2-[2-(2-{2-[4-({[(S)-2-(4-Benzoylbenzamido)-6-(dansylamide)hexanoyl]oxy}methyl)-1H-1,2,3-triazol-1-yl]ethoxy}ethoxy)ethoxy]ethoxy}piperidin-1-yl)-3-(4-fluorophenyl)-1-oxopropan-2-yl]-5-chloro-1H-indole-2-carboxamide], for which the melting point was in the range of 151 to 153 °C. Also, half-maximal inhibition in data set [1] (IC50) required 13.2 ± 5.87 µM. Besides, the “Labelling of protein bands with MW of about 90–100 kDa in semi-quantitative analysis” value in data set [2] (10 μM probe, rat AMI serum and serum blanks with added RMGPa 0–100 ng/mL) is recorded as “efficiently labeled”. Further, the “Labelling of protein band with MW of about 90–100 kDa (consistent with MW of GP)” value in data set [2] (probe at 10, 3, and 1 mM, and 300, 100, and 30 nM, 2.0 mg/mL proteomes) is on record as “clearly labelled”.

`CN(C)c1cccc2c(S(=O)(=O)NCCCCC(NC(=O)c3ccc(C(=O)c4ccccc4)cc3)C(=O)N[C@@H](CCCCNC(=O)CCCC[C@@H]3SC[C@H]4NC(=O)N[C@@H]34)C(=O)OCc3cn(CCOCCOCCOCCOC4CCN(C(=O)[C@H](Cc5ccc(F)cc5)NC(=O)c5cc6cc(Cl)ccc6[nH]5)CC4)nn3)cccc12` (stereo partly drawn) [Compound 2, N-[(S)-1-(4-{2-[2-(2-{2-[4-({[(S)-2-[(S)-2-(4-Benzoylbenzamido)-6-(dansylamide)hexanamido]-6-(5-{(3aR,4S,6aS)-2-oxohexahydro-1H-thieno[3,4-d]imidazol-1-yl}pentanamido)hexanoyl]oxy}methyl)-1H-1,2,3-triazol-1-yl]ethoxy}ethoxy)ethoxy]ethoxy}piperidin-1-yl)-3-(4-fluorophenyl)-1-oxopropan-2-yl]-5-chloro-1H-indole-2-carboxamide] came in with a melting point of 159 to 161 °C. For the same molecule, the “RMGPa IC50” value in data set [1] is “no inhibitory activity”.

With `[N-]=[N+]=NCC(=O)NCCCC[C@H](NC(=O)c1ccc(C(=O)c2ccccc2)cc1)C(=O)OCc1cn(CCOCCOCCOCCOC2CCN(C(=O)[C@H](Cc3ccc(F)cc3)NC(=O)c3cc4cc(Cl)ccc4[nH]3)CC2)nn1` [Compound 3, N-[(S)-1-(4-{2-[2-(2-{2-[4-({[(S)-2-(4-Benzoylbenzamido)-6-(2-azidoacetamido)hexanoyl]oxy}methyl)-1H-1,2,3-triazol-1-yl]ethoxy}ethoxy)ethoxy]ethoxy}piperidin-1-yl)-3-(4-fluorophenyl)-1-oxopropan-2-yl]-5-chloro-1H-indole-2-carboxamide], the melting point was 113 to 115 °C.

The molecule `O=C(N[C@@H](Cc1ccc(F)cc1)C(=O)N1CCC(OCCOCCOCCOCCO)CC1)c1cc2cc(Cl)ccc2[nH]1` [Compound 11, N-{(S)-1-[4-(2-{2-[2-(2-Hydroxyethoxy)ethoxy]ethoxy}ethoxy)piperidin-1-yl]-3-(4-fluorophenyl)-1-oxopropan-2-yl}-5-chloro-1H-indole-2-carboxamide] returned a melting point of 103 to 105 °C. Besides, inhibition in data set [1] was half-maximal at 0.43 ± 0.16 µM (IC50).

The values are drawn from article PMC6413153, “Design, Synthesis, and Use of Novel Photoaffinity Probes in Measuring the Serum Concentration of Glycogen Phosphorylase” (Molecules, 2019).
